In this assay the test system is Patients with BPH. As to the kind of experiment: Double-blind clinical study: intraprostatic injection in patients with BPH, symptoms evaluated by International Prostate Symptom Score (IPSS). The class given is in vivo, human. The text has this:
The International Prostate Symptom Score (I-PSS) is based on the answers to seven questions concerning urinary symptoms and one question concerning quality of life. Each question concerning urinary symptoms allows the patient to choose one out of six answers indicating increasing severity of the particular symptom. The answers are assigned points from 0 to 5. The total score can therefore range from 0 to 35 (asymptomatic to very symptomatic). The questions refer to the following urinary symptoms:
Patients with BPH were given an intraprostatic injection of either a) SEQ ID NO. 66 (Ile-Asp-Gln-Gln-Val-Leu-Ser-Arg-Ile-Lys-Leu-Glu-Ile-Lys-Arg-Cys-Leu) in phosphate buffered saline pH 7.2 (“PBS”) or b) PBS alone, under double-blind conditions by a urologist in an office setting under ultrasound guidance. Patients were followed for 1 to 6 years with regular physical examinations, laboratory tests, and evaluations of symptoms. Symptomatic evaluation was measured by the International Prostate Symptom Score (IPSS) which is a quantitative scale used to gauge prostatic symptomatic improvement or worsening. The IPSS quantifies the following: 1) incomplete bladder emptying after urination; 2) frequent urination; 3) stopping and starting during urination; 4) urgent need to urinate; 5) weakness of urinary stream; 6) need to push or strain during urination; 7) need to urinate after going to sleep at night (nocturia). The difference from baseline IPSS was compared in all patients who were given an intraprostatic injection of SEQ ID NO. 66 to the difference from baseline IPSS in patients who received PBS alone. […] 66 treated patients, there was also an unexpected decrease in the incidence of worsening and progression in symptoms in patients treated with SEQ ID NO. 66.
Patients with BPH were given an intraprostatic injection of either a) SEQ ID NO. 66 in phosphate buffered saline pH 7.2 (“PBS”) or b) PBS alone, under double-blind conditions by a urologist in an office setting under ultrasound guidance. Subsequently, 326 placebo and SEQ ID NO. 66 treated subjects were administered an intraprostatic injection of SEQ ID NO. 66 (2.5 mg). Patients were followed for 1 to 6 years with physical examinations, laboratory tests, and evaluations of symptoms. Symptomatic evaluation was measured by the International Prostate Symptom Score (IPSS) which is a quantitative scale used to gauge prostatic symptomatic improvement or worsening. The IPSS quantifies the following: 1) incomplete bladder emptying after urination; 2) frequent urination; 3) stopping and starting during urination; 4) urgent need to urinate; 5) weakness of urinary stream; 6) need to push or strain during urination; 7) need to urinate after going to sleep at night (nocturia). The difference from baseline IPSS was compared in placebo patients who subsequently received SEQ ID NO. 66 vs results in patients who received PBS alone. […] 66 treated patients there was also an unexpected decrease in the incidence of worsening or lack of improvement in symptoms in patients treated with SEQ ID NO. 66.
Patients with BPH were given an intraprostatic injection of either a) SEQ ID NO. 66 in phosphate buffered saline pH 7.2 (“PBS”) or b) PBS alone, under double-blind conditions by a urologist in an office setting under ultrasound guidance. Subsequently, 326 subjects were given an intraprostatic injection of SEQ ID NO. 66 (2.5 mg). Symptomatic evaluation was measured by the International Prostate Symptom Score (IPSS) which is a quantitative scale used to gauge prostatic symptomatic improvement or worsening. The IPSS quantifies the following: 1) incomplete bladder emptying after urination; 2) frequent urination; 3) stopping and starting during urination; 4) urgent need to urinate; 5) weakness of urinary stream; 6) need to push or strain during urination; 7) need to urinate after going to sleep at night (nocturia). […]

Marks after values point to notes of the source that are not given here.

The text below walks through data of patent publication US10532081B2, “Method of ameliorating or preventing the worsening or the progression of symptoms of BPH” (Nymox Corporation, priority 2016, dated 2020).

Turning to “IDQQVLSRIKLEIKRCL [SEQ ID NO: 66, NTP peptide Ile-Asp-Gln-Gln-Val-Leu-Ser-Arg-Ile-Lys-Leu-Glu-Ile-Lys-Arg-Cys-Leu, injected intraprostatically in phosphate buffered saline pH 7.2]”, the “Percentage of worsening of IPSS” value turned out to be 13.1%* (Example 1: all patients given one intraprostatic injection of SEQ ID NO. 66 in PBS, followed 1 to 6 years, p < .02 vs PBS alone); 9.0%* (Example 5: placebo patients who subsequently received intraprostatic SEQ ID NO. 66 (2.5 mg), followed 1 to 6 years, p < 0.0001 vs PBS alone); 13.5%* (Example 6: patients who received SEQ ID NO. 66 and subsequently SEQ ID NO. 66 (2.5 mg) intraprostatic, followed 1 to 6 years, p < 0.05 vs PBS alone); 11.7%* (Example 7: all placebo and SEQ ID NO. 66 treated patients subsequently given intraprostatic SEQ ID NO. 66 2.5 mg, followed 1 to 6 years, p < .0001 vs PBS alone). Moreover, the “Percentage of worsening of IPSS or no improvement in IPSS” value is, setting by setting: (Example 2: placebo patients who subsequently received intraprostatic SEQ ID NO. 66 (2.5 mg), followed 1 to 6 years, p < 0.0001 vs PBS alone) 17.3%*; (Example 3: patients who received two intraprostatic injections of SEQ ID NO. 66 (second 2.5 mg), p < 0.0001 vs PBS alone) 17.6%*. Moreover, the “Percentage of worsening of IPSS or no improvement of IPSS” value is, setting by setting: (Example 4: all placebo and SEQ ID NO. 66 treated patients subsequently given intraprostatic SEQ ID NO. 66 (2.5 mg), followed 1 to 6 years, p < .0001 vs PBS alone) 17.5%*; (Example 8: patients given one intraprostatic injection of SEQ ID NO. 66 in PBS, followed 1 to 6 years, p < .003 vs PBS alone) 36.4%*. Moreover, the “improvement of symptoms (difference from baseline IPSS) compared to PBS alone” value is “more improvement” (SEQ ID NO. 66 patients subsequently treated with SEQ ID NO. 66 (two injections)); “more improvement” (all placebo and SEQ ID NO. 66 treated patients subsequently treated with SEQ ID NO. 66 (2.5 mg)); “more improvement” (one intraprostatic injection of SEQ ID NO. 66, followed 1 to 6 years); “more improvement” (placebo patients subsequently treated with SEQ ID NO. 66 (2.5 mg)).
